“And” between values parts separate entries of the source, which are not always exact repeats. Equal values may be shown once. Read-outs that look alike come from different tables or passages of the source.
How the values were obtained:
recombinant perforin [1] = biological target: T1, recombinant perforin (Mus musculus, UniProt P10820); test: Inhibition of perforin-mediated lysis of Jurkat cells (51Cr release); format: cell-based
T1 sequence (P10820 21-554): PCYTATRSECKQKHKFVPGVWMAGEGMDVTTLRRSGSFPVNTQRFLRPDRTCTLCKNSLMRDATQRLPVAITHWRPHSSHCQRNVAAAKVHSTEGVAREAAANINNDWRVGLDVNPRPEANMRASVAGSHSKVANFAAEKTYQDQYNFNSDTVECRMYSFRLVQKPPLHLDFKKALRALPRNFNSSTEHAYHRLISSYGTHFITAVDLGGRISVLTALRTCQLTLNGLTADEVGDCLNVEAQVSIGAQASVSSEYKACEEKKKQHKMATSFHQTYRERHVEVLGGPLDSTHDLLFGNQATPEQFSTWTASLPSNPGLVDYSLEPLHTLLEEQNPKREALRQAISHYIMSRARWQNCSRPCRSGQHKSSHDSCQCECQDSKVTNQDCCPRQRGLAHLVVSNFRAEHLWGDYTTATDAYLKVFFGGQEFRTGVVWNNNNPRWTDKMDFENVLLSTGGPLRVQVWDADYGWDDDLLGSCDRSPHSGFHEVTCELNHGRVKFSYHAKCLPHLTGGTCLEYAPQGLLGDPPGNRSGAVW
Protocol: The ability of the compounds to inhibit the lysis of nucleated (Jurkat T lymphoma) cells in the presence of 0.1% BSA, as measured by release of ^51Cr was measured. Jurkat target cells were labelled by incubation in medium with 100 µCi ^51Cr for one hour. The cells were then washed three times to remove unincorporated isotope and re-suspended at 1 x 10^5 cells per mL in RPMI buffer supplemented with 0.1% BSA. […] The supernatant was collected and assessed for its radioactive content on a gamma counter (Wallac Wizard 1470 automatic gamma counter). Each data point was performed in triplicate and an IC50 was calculated from the range of concentrations described to above.

[2] = Toxicity to KHYG-1 NK cells (Trypan blue exclusion); format: cell-based, human; conditions: human, KHYG-1 NK cells, after 24 h, ± SEM
Protocol: (§1) The use of NK cells to secrete perforin rather than employing isolated recombinant protein is a more stringent test of a compound’s ability to block lytic activity, requiring the inhibitor to access the synaptic cleft between effector (NK) and target cells where perforin is released.
(§2) The toxicity assay was carried out in exactly the same manner as the killing assay above, but instead of adding the labelled K562 target cells, 100 μL of RPMI 0.1% BSA was added. Cells were incubated for 4 h at 37 °C and then washed ×3 in RPMI + 0.1% BSA. […] Trypan blue was added to each well. Viable (clear) cells and total (clear + blue) cells were counted, and the percentage of viable cells was calculated compared to DMSO treated cell control (% viability).

KHYG-1 NK cells = test: as above; format: cell-based, human; conditions: after 24 h, ± SEM, 20 µM
Protocol: as §1, §2

[3] = Solubility of the sodium salt in water; format: physicochemical
[4] = Stability in solution (water); format: physicochemical; conditions: sodium salt, 24 h at 20 °C in water
[5] = Microsome stability, mouse; format: in vitro ADME; conditions: sodium salt, mouse microsomes, 30 min
Microsome stability, rat = format: in vitro ADME; conditions: sodium salt, rat microsomes, 30 min
[6] = Microsome stability, human; format: in vitro ADME; conditions: sodium salt, human microsomes, 30 min
[7] = Plasma protein binding by equilibrium dialysis; format: in vitro ADME; conditions: mouse plasma, 6 h incubation at 37 °C
recombinant perforin [8] = biological target: T1, recombinant perforin; test: Inhibition of perforin-mediated lysis of Jurkat cells (51Cr release); format: cell-based; conditions: read-out: Inhibitory activity in Jurkat assay at 20 μM with serum
[9] = biological target: T2, perforin delivered by KHYG-1 NK cells (Homo sapiens, UniProt P14222); test: KHYG-1 cytotoxicity assay: inhibition of NK cell lysis of 51Cr-labelled K562 target cells; format: cell-based; conditions: lysis of 51Cr-labelled K562 cells co-incubated with KHYG-1 NK cells, vs untreated control, ± SEM
T2 construct: The use of NK cells to secrete perforin rather than employing isolated recombinant protein is a more stringent test; endogenous in cells; host or cells: KHYG-1 NK cells (effector), K562 target cells
T2 sequence (P14222 22-555): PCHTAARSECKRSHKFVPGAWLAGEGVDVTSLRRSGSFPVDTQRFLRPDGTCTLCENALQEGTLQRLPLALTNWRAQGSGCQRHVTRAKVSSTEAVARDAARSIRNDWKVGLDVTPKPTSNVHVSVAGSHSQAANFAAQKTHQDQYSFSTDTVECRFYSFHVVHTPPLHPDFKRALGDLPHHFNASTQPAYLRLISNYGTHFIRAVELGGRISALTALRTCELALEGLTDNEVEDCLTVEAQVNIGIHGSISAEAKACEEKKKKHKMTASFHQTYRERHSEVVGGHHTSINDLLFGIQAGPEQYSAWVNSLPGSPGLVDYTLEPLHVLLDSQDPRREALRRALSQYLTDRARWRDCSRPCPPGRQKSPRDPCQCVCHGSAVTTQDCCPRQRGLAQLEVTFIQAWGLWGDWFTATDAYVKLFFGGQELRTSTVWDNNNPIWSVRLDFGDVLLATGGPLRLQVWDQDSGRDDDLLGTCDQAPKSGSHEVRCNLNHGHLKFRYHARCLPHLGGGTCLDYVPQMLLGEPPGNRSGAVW
Protocol: as §1
Test compounds are then added (50 µL) at a final concentration of 20µM and incubated at RT for 20 min. ^51Cr-labelled K562 leukemia target cells (50 µL, 2 x 10^5 cells/mL) are then added to each well and incubated at 37 °C for 4 hours. ^51Cr release is assayed using a Skatron Harvesting Press and radioactivity estimated on a Wallac Wizard 1470 Automatic Gamma counter (Turku, Finland). The inhibitory function is then determined by identifying the number of untreated or inhibitor treated effector cells required to kill the same number of targets. The percent inhibition is calculated by the formula: […]
Where x is the point the inhibitor intersects with the DMSO on a curve.

[10] = biological target: Class I PI3-kinase enzyme p110α/p85 (Homo sapiens, UniProt P42336); test: PI3K-α counterscreening; format: biochemical; conditions: recombinant PI3-kinase, phosphatidylinositol substrate, [33P]-ATP; read-out: PI3Kα IC50
Protocol: Given that the pyridine-3-yl-2,4-difluorobenzenesulphonamide subunit is derived from a structure that was optimised to target PI3Kα, it was also considered prudent to counter-screen for off-target effects related to this pathway.
Compounds were evaluated for their ability to inhibit the Class I PI3-kinase enzyme p110α/p85.

recombinant perforin [11] = biological target: T1, recombinant perforin; conditions: diarylthiophene series; cited from earlier work
[12] = recombinant perforin, 0.1% BSA, 51Cr release, 4 h; average of at least two determinations; read-out: Inhibition of Jurkat cell lysis IC50
[13] = read-out: Inhibition of Jurkat cell lysis IC50; recombinant perforin, 0.1% BSA, 51Cr release, 4 h; average of at least two determinations
[14] = sodium salt in water at room temperature

Sequence of Class I PI3-kinase enzyme p110α/p85 (P42336 whole entry): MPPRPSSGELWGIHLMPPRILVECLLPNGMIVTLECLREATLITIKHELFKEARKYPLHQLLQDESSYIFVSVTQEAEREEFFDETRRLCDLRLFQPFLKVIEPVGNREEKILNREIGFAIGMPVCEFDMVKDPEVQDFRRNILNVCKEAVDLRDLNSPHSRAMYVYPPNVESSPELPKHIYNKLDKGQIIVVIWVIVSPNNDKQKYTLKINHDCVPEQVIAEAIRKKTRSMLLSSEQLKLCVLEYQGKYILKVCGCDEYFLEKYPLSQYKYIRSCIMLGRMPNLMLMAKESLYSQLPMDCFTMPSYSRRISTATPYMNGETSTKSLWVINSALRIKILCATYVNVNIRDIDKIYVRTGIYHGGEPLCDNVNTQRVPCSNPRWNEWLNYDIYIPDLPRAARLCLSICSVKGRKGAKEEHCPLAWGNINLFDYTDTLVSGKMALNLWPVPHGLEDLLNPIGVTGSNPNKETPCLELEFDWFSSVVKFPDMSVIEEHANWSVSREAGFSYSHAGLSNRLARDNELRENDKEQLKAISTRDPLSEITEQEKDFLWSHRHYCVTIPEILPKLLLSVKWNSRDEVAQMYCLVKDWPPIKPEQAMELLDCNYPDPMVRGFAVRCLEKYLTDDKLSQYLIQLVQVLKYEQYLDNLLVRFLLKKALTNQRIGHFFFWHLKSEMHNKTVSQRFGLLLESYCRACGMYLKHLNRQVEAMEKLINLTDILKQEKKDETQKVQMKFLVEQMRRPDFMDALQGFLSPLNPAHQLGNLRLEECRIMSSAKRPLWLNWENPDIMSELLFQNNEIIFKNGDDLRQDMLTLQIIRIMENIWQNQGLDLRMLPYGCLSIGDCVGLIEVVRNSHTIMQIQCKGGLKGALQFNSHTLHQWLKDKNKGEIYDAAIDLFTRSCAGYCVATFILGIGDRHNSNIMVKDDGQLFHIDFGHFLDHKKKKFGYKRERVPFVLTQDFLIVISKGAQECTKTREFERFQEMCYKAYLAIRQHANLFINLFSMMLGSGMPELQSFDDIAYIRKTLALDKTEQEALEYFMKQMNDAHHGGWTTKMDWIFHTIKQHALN
Sequence of Class I PI3-kinase enzyme p110α/p85 (P27986 whole entry partner): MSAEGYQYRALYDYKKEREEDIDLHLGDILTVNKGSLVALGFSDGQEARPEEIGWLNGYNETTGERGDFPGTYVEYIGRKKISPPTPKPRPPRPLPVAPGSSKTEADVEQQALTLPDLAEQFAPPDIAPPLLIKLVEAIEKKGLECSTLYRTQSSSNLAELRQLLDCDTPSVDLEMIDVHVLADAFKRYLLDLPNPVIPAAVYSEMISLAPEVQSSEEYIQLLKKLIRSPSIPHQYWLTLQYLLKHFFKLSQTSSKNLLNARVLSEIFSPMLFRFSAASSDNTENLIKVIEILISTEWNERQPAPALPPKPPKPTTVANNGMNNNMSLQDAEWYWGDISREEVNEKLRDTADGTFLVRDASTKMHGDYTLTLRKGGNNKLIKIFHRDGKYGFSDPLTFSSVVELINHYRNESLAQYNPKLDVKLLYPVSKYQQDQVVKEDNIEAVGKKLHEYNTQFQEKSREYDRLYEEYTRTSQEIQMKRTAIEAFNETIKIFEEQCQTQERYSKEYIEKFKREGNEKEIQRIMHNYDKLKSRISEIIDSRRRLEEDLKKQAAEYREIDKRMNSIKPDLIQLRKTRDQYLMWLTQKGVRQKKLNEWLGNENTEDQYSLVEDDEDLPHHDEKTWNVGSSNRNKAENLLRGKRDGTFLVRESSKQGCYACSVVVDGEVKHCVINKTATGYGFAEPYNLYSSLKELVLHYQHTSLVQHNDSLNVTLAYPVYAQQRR

CC1c2cc(-c3ccc(-c4cncc(NS(=O)(=O)c5ccc(F)cc5F)c4)s3)ccc2C(=O)N1C (stereo not drawn) [Compound 13]
Inhibition of Jurkat cell lysis IC50 (recombinant perforin [1]; recombinant perforin, 0.1% BSA, 51Cr release, 4 h; average of at least two determinations): poor activity
IC50 (recombinant perforin [1]; [12]): > 20 µM

O=C1NCCc2ccc(-c3ccc(-c4cncc(NS(=O)(=O)c5ccc(F)cc5F)c4)s3)cc21 [Compound 11]
IC50 (recombinant perforin [1]; [12]): > 20 µM

O=C1Cc2cc(-c3ccc(-c4cncc(NS(=O)(=O)c5ccc(F)cc5F)c4)s3)ccc2N1 [Compound 14]
Fold superior to N-methyl partner 15 (Jurkat IC50) (recombinant perforin [1]; compared with compound 15): ~2 fold
IC50 (recombinant perforin [1]; [13]): 5.18 µM
viability at 24 h, 20 µM [2]: > 90%
KHYG-1 viability (% at 20 μM) (KHYG-1 NK cells): 96 ± 1.0%
solubility ([3]; sodium salt in water): 390 µg/mL
solubility [3, 14]: 392 µg/mL
Stability in solution (% parent remaining) [4]: 88.7%
Microsome stability (% parent remaining), Mouse [5]: 84%
Microsome stability (% parent remaining), Rat (Microsome stability, rat): 79%
Microsome stability (% parent remaining), Human [6]: 71%
fraction unbound at 6 h [7]: 0.0009

O=C1NCc2ccc(-c3ccc(-c4cncc(NS(=O)(=O)c5ccc(F)cc5F)c4)s3)cc21 [Compound 7]
IC50 (recombinant perforin [1]; [13]): 4.15 µM
viability at 24 h, 20 µM [2]: > 90%
KHYG-1 viability (% at 20 μM) (KHYG-1 NK cells): 96 ± 6.0%
solubility ([3]; sodium salt in water): 12900 µg/mL
solubility [3, 14]: 12900 µg/mL
Stability in solution (% parent remaining) [4]: 97% and 97.3%
Microsome stability (% parent remaining), Mouse [5]: 42%
Microsome stability (% parent remaining), Rat (Microsome stability, rat): 82%
Microsome stability (% parent remaining), Human [6]: 83%
fraction unbound at 6 h [7]: 0.0003

CN1Cc2cc(-c3nc(-c4cncc(NS(=O)(=O)c5ccc(F)cc5F)c4)cs3)ccc2C1=O [Compound 21]
IC50 (recombinant perforin [1]; [12]): > 20 µM

CN1Cc2ccc(-c3ccc(-c4cncc(NS(=O)(=O)c5ccc(F)cc5F)c4)s3)cc2C1=O [Compound 8]
IC50 (recombinant perforin [1]; [13]): 10.4 µM

O=S(=O)(Nc1cncc(-c2ccc(-c3ccc4[nH]ccc4c3)s2)c1)c1ccc(F)cc1F [Compound 16]
inhibition at 20 µM (recombinant perforin [1]; Jurkat, read-out: Inhibitory activity in Jurkat assay at 20 μM): 88%
inhibition at 20 µM (recombinant perforin [8]): 32%

CN1CCc2cc(-c3ccc(-c4cncc(NS(=O)(=O)c5ccc(F)cc5F)c4)s3)ccc2C1=O [Compound 10]
IC50 (recombinant perforin [1]; [12]): > 20 µM

CN1Cc2cc(-c3ccc(-c4cncc(NS(=O)(=O)c5ccc(F)cc5F)c4)s3)ccc2C1=O [Compound 5]
inhibition at 20 µM [9]: 88 ± 3.8%
solubility ([3]; sodium salt in water): 1100 µg/mL
solubility [3, 14]: 1080 µg/mL
Stability in solution (% parent remaining) [4]: 82% and 81.5%
Microsome stability (% parent remaining), Human [6]: 58%
fraction unbound at 6 h [7]: 0.0011
IC50 [10]: > 6.25 µM

Cn1ccc2cc(-c3ccc(-c4cncc(NS(=O)(=O)c5ccc(F)cc5F)c4)s3)ccc21 [Compound 17]
IC50 (recombinant perforin [1]; [13]): 7.58 µM

CN1C(=O)Cc2cc(-c3ccc(-c4cncc(NS(=O)(=O)c5ccc(F)cc5F)c4)s3)ccc21 [Compound 15]
IC50 (recombinant perforin [1]; [13]): 10.3 µM

CC(=O)c1cn(C)c2ccc(-c3ccc(-c4cncc(NS(=O)(=O)c5ccc(F)cc5F)c4)s3)cc12 [Compound 18]
IC50 (recombinant perforin [1]; [13]): 11.2 µM

NC(=O)c1ccc(-c2ccc(-c3ccc4c(c3)COC4=O)s2)cn1 [Compound 3]
Inhibition of isolated perforin (recombinant perforin [11]): sub-micromolar

CS(=O)(=O)Nc1ccc(-c2ccc(-c3ccc4c(c3)COC4=O)s2)cc1 [Compound 2]
Inhibition of isolated perforin (recombinant perforin [11]): sub-micromolar

CN1Cc2cc(-c3ccc(-c4cncc(NS(=O)(=O)c5ccc(F)cc5F)c4)o3)ccc2C1=O [Compound 19]
IC50 (recombinant perforin [1]; [12]): 15 µM

O=C1NCCc2cc(-c3ccc(-c4cncc(NS(=O)(=O)c5ccc(F)cc5F)c4)s3)ccc21 [Compound 9]
IC50 (recombinant perforin [1]; [12]): > 20 µM

CN1Cc2cc(-c3ccc(-c4cncc(NS(=O)(=O)c5ccc(F)cc5F)c4)nc3)ccc2C1=O [Compound 22]
IC50 (recombinant perforin [1]; [13]): 8.17 µM

O=C1NCc2cc(-c3ccc(-c4cncc(NS(=O)(=O)c5ccc(F)cc5F)c4)s3)ccc21 [Compound 6]
viability at 24 h, 20 µM [2]: > 90%
KHYG-1 viability (% at 20 μM) (KHYG-1 NK cells): 94 ± 4.0%
solubility ([3]; sodium salt in water): 10600 µg/mL
solubility [3, 14]: 10600 µg/mL
Stability in solution (% parent remaining) [4]: 82.0%
Microsome stability (% parent remaining), Mouse [5]: 92%
Microsome stability (% parent remaining), Rat (Microsome stability, rat): 88%
Microsome stability (% parent remaining), Human [6]: 85%
fraction unbound at 6 h [7]: 0.003

CN1Cc2cc(-c3ncc(-c4cncc(NS(=O)(=O)c5ccc(F)cc5F)c4)s3)ccc2C1=O [Compound 20]
IC50 (recombinant perforin [1]; [13]): 17.1 µM

Source: publication PMC5303009, “Benzenesulphonamide inhibitors of the cytolytic protein perforin” (Bioorganic & Medicinal Chemistry Letters, 2017)
